We go through ten molecules from BindingDB's records for doi:10.1016/j.bmcl.2008.07.123 (Bristol-Myers Squibb, 2008).

The assay is described as follows: Antagonist activity at CCR2 in human PBMC assessed as MCP1-induced chemotaxis.

Molecules are shown by their SMILES.

Take `CSc1ccc(CNC2CCNCC2NC(=O)CNC(=O)c2cc(C(F)(F)F)ccc2N)cc1` (racemic) [(+/-)-2-amino-N-(2-(4-(4-(methylthio)benzylamino)piperidin-3-ylamino)-2-oxoethyl)-5-(trifluoromethyl)benzamide]: the IC50 worked out at 285 nM. In the case of `CSc1ccc(CNC2CCN(C)CC2NC(=O)CNC(=O)c2cc(C(F)(F)F)ccc2N)cc1` (racemic) [(+/-)-2-amino-N-(2-(1-methyl-4-(4-(methylthio)benzylamino)piperidin-3-ylamino)-2-oxoethyl)-5-(trifluoromethyl)benzamide], the IC50 stood at 27.5 nM. Turning to `CCCN1CCC(NCc2ccc(SC)cc2)C(NC(=O)CNC(=O)c2cc(C(F)(F)F)ccc2N)C1` (racemic) [(+/-)-2-amino-N-(2-(4-(4-(methylthio)benzylamino)-1-propylpiperidin-3-ylamino)-2-oxoethyl)-5-(trifluoromethyl)benzamide], the IC50 worked out at 5.4 nM. Turning to `CCCN1CCC(NCc2ccc(SC)cc2)C(NC(=O)CNC(=O)c2cc(C(F)(F)F)ccc2NC(=O)NC)C1` (racemic) [(+/-)-N-(2-(4-(4-(methylthio)benzylamino)-1-propylpiperidin-3-ylamino)-2-oxoethyl)-2-(3-methylureido)-5-(trifluoromethyl)benzamide], the IC50 was determined as 8 nM.

For `CCCCN1CCC(NC(=O)c2ccc(SC)cc2)C(NC(=O)CNC(=O)c2cc(C(F)(F)F)ccc2N)C1` (racemic) [(+/-)-2-amino-N-(2-(1-butyl-4-(4-(methylthio)benzamido)piperidin-3-ylamino)-2-oxoethyl)-5-(trifluoromethyl)benzamide], the IC50 amounted to 17.5 nM. `CCCCN1CCC(NCc2ccc(SC)cc2)C(NC(=O)CNC(=O)c2cc(C(F)(F)F)ccc2N)C1` (racemic) [(+/-)-2-amino-N-(2-(1-butyl-4-(4-(methylthio)benzylamino)piperidin-3-ylamino)-2-oxoethyl)-5-(trifluoromethyl)benzamide]: the IC50 is 19 nM. Turning to `CCCN1CCC(NCc2ccc(SC)cc2)C(NC(=O)CNC(=O)c2cc(C(F)(F)F)ccc2NC(=O)N2CCCC2)C1` (racemic) [(+/-)-N-(2-(2-(4-(4-(methylthio)benzylamino)-1-propylpiperidin-3-ylamino)-2-oxoethylcarbamoyl)-4-(trifluoromethyl)phenyl)pyrrolidine-1-carboxamide], the IC50 amounted to 4.8 nM. As to `CCCN1CCC(NCc2ccc(SC)cc2)C(NC(=O)CNC(=O)c2cc(N)cc(C(F)(F)F)c2)C1` (racemic) [(+/-)-3-amino-N-(2-(4-(4-(methylthio)benzylamino)-1-propylpiperidin-3-ylamino)-2-oxoethyl)-5-(trifluoromethyl)benzamide], the IC50 is 26 nM. Regarding `CSc1ccc(C(=O)NC2CCN(C)CC2NC(=O)CNC(=O)c2cc(C(F)(F)F)ccc2N)cc1` (racemic) [(+/-)-2-amino-N-(2-(1-methyl-4-(4-(methylthio)benzamido)piperidin-3-ylamino)-2-oxoethyl)-5-(trifluoromethyl)benzamide], the IC50 was 38.5 nM. As to `CCCN1CCC(NC(=O)c2ccc(SC)cc2)C(NC(=O)CNC(=O)c2cc(N)cc(C(F)(F)F)c2)C1` (racemic) [(+/-)-3-amino-N-(2-(4-(4-(methylthio)benzamido)-1-propylpiperidin-3-ylamino)-2-oxoethyl)-5-(trifluoromethyl)benzamide], the IC50 was determined as 25 nM.

For orientation: IC50 means the concentration needed to halve the response being measured.
